Data set [1] concerns CaSki human cervical carcinoma cells. The experiment in a line: in vitro cytotoxicity: [3H] leucine incorporation (protein synthesis) in CaSki cells.
Method: One way to evaluate the in vitro cytotoxic activities of a proactive compound is by incubating the tested compound with cancerous cells in serum at 37° C. for a certain period of time. After incubation, the cells can be washed and pulsed with [^3 H] leucine in leucine-free medium for another period of time. The radioactivity of trichloroacetic acid-precipitated protein, an indication of the level of protein synthesis of the cell, can then be measured.
CaSki human cervical carcinoma cells were plated overnight in 96-well microtiter plates at 18,000 cells/well. Serial dilution of (i) compound 17 alone, (ii) compound 22 with β-glucuronidase, and (iii) compound 22 alone, in medium containing 5% fetal calf serum were added to cells for 96 hours at 37° C. Cells were subsequently washed once with sterile PBS, and then pulsed for 2 hours with [^3 H] leucine (1 μCi/well) in leucine-free medium. The radioactivity of trichloroacetic acid-precipitated protein was measured in a Beckman LS 6000 series liquid scintillation counter.
Data set [2] can be described thus: stability of the proactive compound in 95% human plasma at 37° C., HPLC. The class given is in vitro ADME. Conditions: 145 μM (100 μg/ml), CO2 atmosphere, up to 48 hours, as compared with compound 23. As to the method: The stability of the proactive compound in serum can be evaluated by using high performance liquid chromatography (HPLC) analysis. […] Aliquots are taken out from the serum solution after every pre-designed period of time, e.g., every other hour. The proteins present in serum are precipitated, acidified, and dried under reduced pressure. The dried compound is dissolved in the HPLC buffer and then analyzed by HPLC.
(§1) 20 μl samples made from compounds 22 and 17 (moiety (3) of compound 22) were injected onto a Hypersil column (RP-18, 4.6×250 mm, 5 μm) with 45% methanol and 25 mM phosphate buffer (pH 2.5) as mobile phase at a flow rate of 1 ml/min. Eluted components were detected by fluorescence (excitation: 397 nm, emission: 482 nm) on a Gilson fluorometer. Peak areas were analyzed with Beckman system Gold software. The retention times for compound 17 and compound 22 were 9.5 and 15.8 minutes, respectively.

A further data set deals with E. coli β-glucuronidase (Escherichia coli, UniProt P05804). The experiment in a line: cleavage of compound 22 by β-glucuronidase in βG buffer, HPLC. The data set is classed as biochemical. To be noted: E. coli β-glucuronidase 1 μg/ml, 37° C. As to the method: The proactive compound can also be tested as to its ability to be cleaved by β-glucuronidase. Specifically, the enzyme and the tested compound are both added to […]. Aliquots are then taken out and evaluated in a similar fashion as described above.
as §1
500 μl of compound 22 (116 μM) in βG buffer (100 mM acetic acid, 50 mM bis-tris, 50 mM triethanolamine, pH 7.0) was incubated with E. coli β-glucuronidase (1 μg/ml) at 37° C. Aliquots (30 μl) withdrawn after 0, 1, 2, 3, and 5 minutes was mixed with 300 μl of ethyl acetate, and acidified by addition of 12 mM phosphoric acid (270 μl). […] The recovery of compounds 22 and 17 from βG buffer […] were about 90% and 80%, respectively. Samples were suspended in 150 μl of mobile phase (45% methanol/25 mM phosphate buffer, pH 2.5) and analyzed by HPLC.

Each structure is given as a SMILES string.

Two molecules from patent US6043367A, “Proactive antitumor compounds” (priority 1998, dated 2000) can be followed below.

Sequence of E. coli β-glucuronidase (P05804 whole entry): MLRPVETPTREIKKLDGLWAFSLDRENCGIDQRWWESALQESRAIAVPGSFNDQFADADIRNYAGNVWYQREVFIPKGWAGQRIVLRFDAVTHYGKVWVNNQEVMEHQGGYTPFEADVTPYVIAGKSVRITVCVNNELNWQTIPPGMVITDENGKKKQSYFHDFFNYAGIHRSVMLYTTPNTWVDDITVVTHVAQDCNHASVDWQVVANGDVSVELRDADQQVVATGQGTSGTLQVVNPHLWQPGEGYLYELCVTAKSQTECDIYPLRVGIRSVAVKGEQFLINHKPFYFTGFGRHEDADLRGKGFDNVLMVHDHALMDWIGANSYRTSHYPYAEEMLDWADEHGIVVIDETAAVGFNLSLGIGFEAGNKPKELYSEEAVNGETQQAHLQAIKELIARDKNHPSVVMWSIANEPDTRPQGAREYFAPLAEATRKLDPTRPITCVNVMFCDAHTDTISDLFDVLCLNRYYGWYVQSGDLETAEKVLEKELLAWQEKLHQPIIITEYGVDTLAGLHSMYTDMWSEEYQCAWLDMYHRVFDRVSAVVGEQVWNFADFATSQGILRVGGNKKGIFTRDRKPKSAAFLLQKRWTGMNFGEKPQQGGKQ

Consider `CC[C@@]1(O)C(=O)OCc2c1cc1n(c2=O)Cc2cc3c(NC(=O)OCc4ccc(O[C@@H]5O[C@H](C(=O)O)[C@@H](O)[C@H](O)[C@H]5O)cc4)cccc3nc2-1` [Compound 22], for which the results for the “cytotoxicity relative to compound 17” value in data set [1] (compound alone (no β-glucuronidase)) and in data set [1] (upon activation by glucuronidase) were “much less cytotoxic than compound 17” and “almost as cytotoxic as compound 17”, respectively. In data set [1] (compound alone (no β-glucuronidase), 100 nM, 96 hours, 37° C., 5% fetal calf serum), the “change of level of protein synthesis” value is recorded as “did not change”. Also, the “decrease of level of protein synthesis” value in data set [1] (with β-glucuronidase, 100 nM, 96 hours, 37° C., 5% fetal calf serum) was about 4 fold. Besides, in data set [2], the “half life in serum” value is given as “surprisingly long half life in serum”. Also, the “conversion into moiety (3) upon activation by glucuronidase” value on E. coli β-glucuronidase was “converted into its moiety (3), i.e., compound 17”. Besides, the “absorbance of compound 22 after incubation with β-glucuronidase” value on E. coli β-glucuronidase (after 3 minutes, compound 22 116 μM, βG buffer pH 7.0) was “almost undetectable”.
In the case of `CC[C@@]1(O)C(=O)OCc2c1cc1n(c2=O)Cc2cc3c(N)cccc3nc2-1` [Compound 17, reference compound], the “decrease of level of protein synthesis” value in data set [1] (compound alone, 100 nM, 96 hours, 37° C., 5% fetal calf serum) was about 4 fold. For the same molecule, the “absorbance of compound 17 released from compound 22 by β-glucuronidase” value at E. coli β-glucuronidase (0-5 minutes, compound 22 116 μM, βG buffer pH 7.0) is “increased in the first three minutes and reached a steady level after the third minute”.
